# Structures can show the parent of a compound that is named as a salt. Where two headings read alike, the source gives them in different places.
# Assay: Acute toxicity, LD50 (mouse, i.v.)
# Type: in vivo
Structure (SMILES),LD50 (disodium salt),LD50 [mg/kg]
"O=C(O)C1=C(C[n+]2ccc(CCS(=O)(=O)[O-])cc2)CS[C@@H]2[C@H](NC(=O)[C@H](NC(=O)c3[nH]cnc3C(=O)O)c3ccccc3)C(=O)N12 [disodium salt, 7B-[D--(-)-α-(4-carboxyimidazole-5-carboxyamide)-phenylacetamide]-3-(4-β-sulfoethyl-pyridinium)-methyl-3-cepham-4-carboxylic acid, disodium salt]",more than 3 g/kg,–
"O=C(O)C1=C(C[n+]2ccc(CCS(=O)(=O)[O-])cc2)CS[C@@H]2[C@H](NC(=O)[C@H](NC(=O)c3[nH]cnc3C(=O)O)c3ccccc3)C(=O)N12 [dipotassium salt, 7B-[D--(-)-α-(4-carboxyimidazole-5-carboxyamide)-phenylacetamide]-3-(4-β-sulfoethyl-pyridinium)-methyl-3-cepham-4-carboxylic acid]",–,500 to 1000

# Reference: patent US4423215A, “Method of preparing sodium salts of imidazoledicarboxylic acid substituted cephalosporin derivatives” (Ajinomoto Company, Inc., priority 1981, dated 1983)
